Data: PubChem BioAssay (NCI)
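Cells were grown in 96-well plates and exposed to each compound for 48 hours at five concentrations; endpoints were interpolated linearly between bracketing concentrations, or set to the highest concentration if not reached. TGI denotes the concentration required for complete inhibition of growth.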

Columns and labels:
Experiment in all cases: inhibition of tumour cell growth, NCI panel, 48 h
[1] = test system: CCRF-CEM leukemia
[2] = test system: SNB-19 CNS
[3] = test system: SK-MEL-5 melanoma
[4] = test system: EKVX NSCLC
[5] = test system: OVCAR-5 ovarian
[6] = test system: A549 NSCLC
[7] = test system: HOP-18 NSCLC
[8] = test system: MOLT-4 leukemia
[9] = test system: HT29 colon
[10] = test system: K-562 leukemia
[11] = test system: SNB-78 CNS
[12] = test system: NCI-H23 lung
[13] = test system: KM20L2 colon
[14] = test system: HL-60(TB) leukemia
[15] = test system: XF 498 CNS
[16] = test system: HOP-92 NSCLC
[17] = test system: OVCAR-8 ovarian
[18] = test system: HCT-15 colon
[19] = test system: SF-539 CNS
[20] = test system: NCI-H460 lung
[21] = test system: SK-MEL-28 melanoma
[22] = test system: SF-268 CNS
[23] = test system: M14 melanoma
[24] = test system: DMS 114 small cell lung
[25] = test system: OVCAR-3 ovarian
[26] = test system: 786-0 renal
[27] = test system: LXFL 529 NSCLC
[28] = test system: KM12 colon
[29] = test system: M19-MEL melanoma
[30] = test system: IGROV1 ovarian
[31] = test system: SK-OV-3 ovarian
[32] = test system: TK-10 renal
[33] = test system: UACC-62 melanoma
[34] = test system: SF-295 CNS
[35] = test system: SR leukemia
[36] = test system: NCI-H522 lung
[37] = test system: A498 renal
[38] = test system: RPMI-8226 leukemia
[39] = test system: MALME-3M melanoma
[40] = test system: SW-620 colon
[41] = test system: HOP-62 NSCLC
[42] = test system: LOX IMVI melanoma
[43] = test system: HCT-116 colon
[44] = test system: DLD-1 colon
[45] = test system: UACC-257 melanoma
[46] = test system: UO-31 renal
[47] = test system: DMS 273 small cell lung
[48] = test system: U251 CNS
[49] = test system: SK-MEL-2 melanoma
[50] = test system: T-47D breast
[51] = test system: NCI-H226 lung
[52] = test system: MDA-N
[53] = test system: HCC-2998 colon
[54] = test system: MCF7 breast
[55] = test system: MDA-MB-435
[56] = test system: SN12C renal
[57] = test system: CAKI-1 renal
[58] = test system: OVCAR-4 ovarian
[59] = test system: DU-145 prostate
[60] = test system: PC-3 prostate
[61] = test system: COLO 205 colon
[62] = test system: ACHN renal
[63] = test system: HS 578T breast
[64] = test system: RXF-631 renal
[65] = test system: SNB-75 CNS
[66] = test system: NCI/ADR-RES ovarian
[67] = test system: BT-549 breast
[68] = test system: MDA-MB-231 breast
[69] = test system: RXF 393 renal

For CC(C)(Oc1ccc(C(=O)c2ccc(Cl)cc2)cc1Cl)C(=O)N1CCN(c2ccccc2)CC1, the TGI [1] was > 100 µM, the TGI [2] was > 100 µM and the TGI [3] was > 100 µM. The TGI [4] was > 100 µM, the TGI [5] was > 100 µM and the TGI [6] was > 100 µM. For the same molecule, the TGI [7] was > 100 µM, the TGI [8] was > 100 µM and the TGI [9] was > 100 µM. For the same molecule, the TGI [10] was > 100 µM, the TGI [11] was > 100 µM and the TGI [12] was > 100 µM. For the same molecule, the TGI [13] was > 100 µM, the TGI [14] was > 100 µM and the TGI [15] was > 100 µM. For the same molecule, the TGI [16] was > 100 µM, the TGI [17] was > 100 µM and the TGI [18] was > 100 µM. The TGI [19] was > 100 µM, the TGI [20] was > 100 µM and the TGI [21] was > 100 µM. For the same molecule, the TGI [22] was > 100 µM, the TGI [23] was > 100 µM and the TGI [24] was > 100 µM. For the same molecule, the TGI [25] was > 100 µM, the TGI [26] was > 100 µM and the TGI [27] was > 100 µM. For the same molecule, the TGI [28] was > 100 µM, the TGI [29] was > 100 µM and the TGI [30] was > 100 µM. For the same molecule, the TGI [31] was > 100 µM, the TGI [32] was > 100 µM and the TGI [33] was > 100 µM. For the same molecule, the TGI [34] was > 100 µM, the TGI [35] was > 100 µM and the TGI [36] was > 100 µM. The TGI [37] was > 100 µM, the TGI [38] was > 100 µM and the TGI [39] was > 100 µM. The TGI [40] was > 100 µM, the TGI [41] was > 100 µM and the TGI [42] was > 100 µM. The TGI [43] was > 100 µM, the TGI [44] was > 100 µM and the TGI [45] was > 100 µM. For the same molecule, the TGI [46] was > 100 µM, the TGI [47] was > 100 µM and the TGI [48] was > 100 µM. The TGI [49] was > 100 µM.
Cc1nc2ccc(NCCN(C)C)c3c(=O)c4cc(O)ccc4n1c23 gave a TGI [50] of 14.8 µM, a TGI [1] of 2.5 µM and a TGI [2] of 7.06 µM. For the same molecule, the TGI [51] was 1.7 µM, the TGI [3] was 10.5 µM and the TGI [5] was 6.05 µM. It also gave a TGI [52] of 13.7 µM, a TGI [6] of 3.39 µM and a TGI [8] of 0.904 µM. It also gave a TGI [9] of 2.4 µM, a TGI [10] of 4.25 µM and a TGI [12] of 2.05 µM. It also gave a TGI [53] of 1.71 µM, a TGI [14] of 3.1 µM and a TGI [54] of 11.5 µM. For the same molecule, the TGI [15] was 11.2 µM, the TGI [55] was 13.7 µM and the TGI [16] was 6.96 µM. For the same molecule, the TGI [17] was 2.37 µM, the TGI [18] was 2.8 µM and the TGI [19] was 12.2 µM. It also gave a TGI [20] of 1.39 µM, a TGI [56] of 4.93 µM and a TGI [21] of 11.7 µM. The TGI [57] was 3.94 µM, the TGI [22] was 5.43 µM and the TGI [23] was 15.9 µM. For the same molecule, the TGI [58] was 3.38 µM, the TGI [24] was 2.14 µM and the TGI [59] was 4.93 µM. It also gave a TGI [25] of 9.94 µM, a TGI [26] of 10.5 µM and a TGI [27] of 11.1 µM. For the same molecule, the TGI [28] was 4.09 µM, the TGI [29] was 9.27 µM and the TGI [30] was 9.46 µM. For the same molecule, the TGI [60] was 4.86 µM, the TGI [31] was 8.98 µM and the TGI [32] was 12.5 µM. The TGI [33] was 5.63 µM, the TGI [61] was 2.3 µM and the TGI [62] was 1.94 µM. It also gave a TGI [63] of 2.77 µM, a TGI [34] of 5.87 µM and a TGI [35] of 0.248 µM. For the same molecule, the TGI [36] was 1.98 µM, the TGI [64] was 1.96 µM and the TGI [37] was 4.93 µM. The TGI [38] was 6.23 µM, the TGI [39] was 9.06 µM and the TGI [40] was 4.53 µM. It also gave a TGI [65] of 5.63 µM, a TGI [66] of 7.29 µM and a TGI [41] of 11.1 µM. For the same molecule, the TGI [42] was 2.62 µM, the TGI [43] was 2.22 µM and the TGI [67] was 19 µM. The TGI [68] was 13.2 µM, the TGI [45] was 13.6 µM and the TGI [46] was 9.14 µM. The TGI [47] was 1.76 µM, the TGI [48] was 11.7 µM and the TGI [49] was 13.4 µM.
For COC1(OC)c2ccccc2C2(O)c3ccccc3C(=O)C12 (centres undefined), the TGI [1] was 84.5 µM, the TGI [2] was > 100 µM and the TGI [51] was > 100 µM. The TGI [3] was 31.9 µM, the TGI [4] was > 100 µM and the TGI [5] was > 100 µM. The TGI [7] was > 100 µM, the TGI [8] was 80.9 µM and the TGI [9] was > 100 µM. For the same molecule, the TGI [10] was > 100 µM, the TGI [11] was > 100 µM and the TGI [12] was > 100 µM. For the same molecule, the TGI [53] was > 100 µM, the TGI [13] was > 100 µM and the TGI [14] was 46 µM. The TGI [15] was 58.8 µM, the TGI [69] was > 100 µM and the TGI [16] was > 100 µM. The TGI [17] was > 100 µM, the TGI [18] was > 100 µM and the TGI [19] was > 100 µM. The TGI [20] was > 100 µM, the TGI [56] was > 100 µM and the TGI [21] was > 100 µM. The TGI [22] was > 100 µM, the TGI [23] was > 100 µM and the TGI [24] was > 100 µM. The TGI [25] was > 100 µM, the TGI [26] was > 100 µM and the TGI [27] was > 100 µM. The TGI [28] was > 100 µM, the TGI [29] was > 100 µM and the TGI [30] was 67 µM. The TGI [31] was > 100 µM, the TGI [32] was > 100 µM and the TGI [33] was > 100 µM. For the same molecule, the TGI [61] was 27 µM, the TGI [62] was > 100 µM and the TGI [34] was > 100 µM. The TGI [35] was > 100 µM, the TGI [36] was 47 µM and the TGI [38] was 62.5 µM. For the same molecule, the TGI [39] was > 100 µM, the TGI [40] was > 100 µM and the TGI [65] was > 100 µM. The TGI [42] was > 100 µM, the TGI [43] was > 100 µM and the TGI [45] was 83.9 µM. For the same molecule, the TGI [46] was 86.8 µM, the TGI [47] was > 100 µM and the TGI [48] was > 100 µM. The TGI [49] was > 100 µM.
